Experimental data: US20220220152A1, “BIVALENT ANTAGONISTS OF INHIBITORS OF APOPTOSIS PROTEINS” (Hepagene Therapeutics (HK) Limited, priority 2019, published 2022)

How the values were obtained:
cIAP2-BIR3 = molecular target: T1, cIAP2-BIR3 (Homo sapiens, UniProt Q13489); experiment: cIAP2-BIR3 fluorescence polarization binding assay; settings: FP, probe AbuRPFK-5FAM (SM5F) 5 nM, cIAP2-BIR3 80 nM, 60 min at 25° C.
T1 construct: cIAP2-BIR3; purchased Reaction Biology APT-11-372
Procedure, shortened: (§1)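 Fluorescence polarization competition using 5-carboxyfluorescein-labelled peptide probe AbuRPFK-5FAM; protein and compound preincubated 15 min, probe added, then 60 min at 25° C.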

cIAP1-BIR3 = molecular target: T2, cIAP1-BIR3 (Homo sapiens, UniProt Q13490); experiment: cIAP1-BIR3 fluorescence polarization binding assay; settings: FP, probe AbuRPFK-5FAM (SM5F) 5 nM, cIAP1-BIR3 15 nM, 60 min at 25° C.
T2 construct: cIAP1-BIR3; purchased Reaction Biology APT-11-370
T2 sequence (Q13490 253-363 limits assumed): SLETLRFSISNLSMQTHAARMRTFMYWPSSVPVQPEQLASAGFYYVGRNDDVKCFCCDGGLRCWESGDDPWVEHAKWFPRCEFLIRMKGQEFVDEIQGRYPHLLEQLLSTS
Procedure, shortened: as §1

XIAP-BIR3 = molecular target: T3, XIAP-BIR3 (Homo sapiens, UniProt P98170); experiment: XIAP-BIR3 fluorescence polarization binding assay; settings: FP, probe AbuRPFK-5FAM (SM5F) 5 nM, XIAP-BIR3 40 nM, 60 min at 25° C.
T3 construct: XIAP-BIR3; purchased Reaction Biology APT-11-374
T3 sequence (P98170 241-356 limits assumed): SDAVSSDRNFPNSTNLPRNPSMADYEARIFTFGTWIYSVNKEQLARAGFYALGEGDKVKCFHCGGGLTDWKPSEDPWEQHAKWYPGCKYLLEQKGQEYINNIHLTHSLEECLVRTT
Procedure, shortened: as §1

T1 sequence (Q13489 238-349 limits assumed): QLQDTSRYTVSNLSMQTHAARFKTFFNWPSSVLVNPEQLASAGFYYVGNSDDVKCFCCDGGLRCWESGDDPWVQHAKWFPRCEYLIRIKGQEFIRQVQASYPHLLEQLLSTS

Compound | IC50 (cIAP2-BIR3) | IC50 (cIAP1-BIR3) | IC50 (XIAP-BIR3)
CN[C@@H](C)C(=O)N[C@@H](C)C(=O)N1CCC[C@H]1C(=O)N[C@@H]1CCCc2c(-c3cccc4c3CCC[C@H]4NC(=O)[C@@H]3CCCN3C(=O)[C@H](C)NC(=O)[C@H](C)NC)cccc21 [Compound V-H, (2S)-1-[(2S)-2-[(2S)-2-(methylamino)propanamido]propanoyl]-N-[(5R,5′R)-5′-[(2S)-1-[(2S)-2-[(2S)-2-(methylamino)propanamido]propanoyl]pyrrolidine-2-amido]-5H,5′H,6H,6′H,7H,7′H,8H,8′H-[1,1′-binaphthalen]-5-yl]pyrrolidine-2-carboxamide] | 10 to 100 nM | 1 to 10 nM | 100 to 1000 nM
CN[C@@H](C)C(=O)N[C@H](C(=O)N1CCC[C@H]1C(=O)N[C@@H]1CCCc2c(-c3cccc4c3CCC[C@H]4NC(=O)[C@@H]3CCCN3C(=O)[C@@H](NC(=O)[C@H](C)NC)C3CCOCC3)cccc21)C1CCOCC1 [Compound V-K, (S)-1-((S)-2-((S)-2-(methylamino)propanamido)-2-(tetrahydro-2H-pyran-4-yl)acetyl)-N-((5R,5′R)-5′-((S)-1-((S)-2-((S)-2-(methylamino)propanamido)-2-(tetrahydro-2H-pyran-4-yl)acetyl)pyrrolidine-2-carboxamido)-5,5′,6,6′,7,7′,8,8′-octahydro-[1,1′-binaphthalen]-5-yl)pyrrolidine-2-carboxamide] | 10 to 100 nM | 1 to 10 nM | 10 to 100 nM
CN[C@@H](C)C(=O)N[C@H](C(=O)N1CCC[C@H]1C(=O)N[C@@H]1CCCc2c(Nc3cccc4c3CCC[C@H]4NC(=O)[C@@H]3CCCN3C(=O)[C@@H](NC(=O)[C@H](C)NC)C3CCOCC3)cccc21)C1CCOCC1 [Compound VI-A, (S)-1-((S)-2-((S)-2-(methylamino)propanamido)-2-(tetrahydro-2H-pyran-4-yl)acetyl)-N—((R)-5-(((R)-5-((S)-1-((S)-2-((S)-2-(methylamino)propanamido)-2-(tetrahydro-2H-pyran-4-yl)acetyl)pyrrolidine-2-carboxamido)-5,6,7,8-tetrahydronaphthalen-1-yl)amino)-1,2,3,4-tetrahydronaphthalen-1-yl)pyrrolidine-2-carboxamide] | 10 to 100 nM | 1 to 10 nM | 10 to 100 nM
CC[C@H](NC(=O)[C@H](C)NC)C(=O)N1CCC[C@H]1C(=O)N[C@@H]1CCCc2c(Oc3cccc4c3CCC[C@H]4NC(=O)[C@@H]3CCCN3C(=O)[C@H](CC)NC(=O)[C@H](C)NC)cccc21 [Compound X-A] | 10 to 100 nM | 1 to 10 nM | 10 to 100 nM
CN[C@@H](C)C(=O)N[C@H](C(=O)N1CCC[C@H]1C(=O)N[C@@H]1CCOc2c(-c3cccc4c3OCC[C@H]4NC(=O)[C@@H]3CCCN3C(=O)[C@@H](NC(=O)[C@H](C)NC)C3CCCCC3)cccc21)C1CCCCC1 [Compound V-P, (S)-1-((S)-2-cyclohexyl-2-((S)-2-(methylamino)propanamido)acetyl)-N-((4R,4′R)-4′-((S)-1-((S)-2-cyclohexyl-2-((S)-2-(methylamino)propanamido)acetyl)pyrrolidine-2-carboxamido)-[8,8′-bichroman]-4-yl)pyrrolidine-2-carboxamide] | 10 to 100 nM | 1 to 10 nM | 10 to 100 nM

The remaining lines, values ahead:

IC50 (cIAP2-BIR3) | IC50 (cIAP1-BIR3) | IC50 (XIAP-BIR3) | Compound
10 to 100 nM | 1 to 10 nM | 10 to 100 nM | CN[C@@H](C)C(=O)N[C@H](C(=O)N1CCC[C@H]1C(=O)N[C@@H]1CCCc2c(Oc3cccc4c3CCC[C@H]4NC(=O)[C@@H]3CCCN3C(=O)[C@@H](NC(=O)[C@H](C)NC)C3CCCCC3)cccc21)C1CCCCC1 [Compound X, (2S)-1-[(2S)-2-cyclohexyl-2-[(2S)-2-(methylamino)propanamido]acetyl]-N-[(1R)-5-[[(5R)-5-[(2S)-1-[(2S)-2-cyclohexyl-2-[(2S)-2-(methylamino)propanamido]acetyl]pyrrolidine-2-amido]-5,6,7,8-tetrahydronaphthalen-1-yl]oxy]-1,2,3,4-tetrahydronaphthalen-1-yl]pyrrolidine-2-carboxamide]
1 to 10 nM | 1 to 10 nM | 1 to 10 nM | CN[C@@H](C)C(=O)N[C@@H](C)C(=O)N1CCC[C@H]1C(=O)N[C@@H]1CCCc2c(-c3cccc(-c4cccc5c4CCC[C@H]5NC(=O)[C@@H]4CCCN4C(=O)[C@H](C)NC(=O)[C@H](C)NC)c3)cccc21 [Compound III-C, (2S)-1-[(2S)-2-[(2S)-2-(methylamino)propanamido]propanoyl]-N-[(1R)-5-[3-[(5R)-5-[(2S)-1-[(2S)-2-[(2S)-2-(methylamino)propanamido]propanoyl]pyrrolidine-2-amido]-5,6,7,8-tetrahydmnaphthalen-1-yl]phenyl]-1,2,3,4-tetrahydmnaphthalen-1-yl]pyrrolidine-2-carboxamide]
10 to 100 nM | 1 to 10 nM | 10 to 100 nM | CN[C@@H](C)C(=O)N[C@H](C(=O)N1CCC[C@H]1C(=O)N[C@@H]1CCCc2c(OCCCCCOc3cccc4c3CCC[C@H]4NC(=O)[C@@H]3CCCN3C(=O)[C@@H](NC(=O)[C@H](C)NC)C(C)C)cccc21)C(C)C [Compound I-G, (2S)-1-[(2S)-3-methyl-2-[(2S)-2-(methylamino)propanamido]butanoyl]-N-[(1R)-5-[(5-[[(5R)-5-[(2S)-1-[(2S)-3-methyl-2-[(2S)-2-(methylamino)propanamido]butanoyl]pyrrolidine-2-amido]-5,6,7,8-tetrahydronaphthalen-1-yl]oxy]pentyl)oxy]-1,2,3,4-tetrahydronaphthalen-1-yl]pyrrolidine-2-carboxamide]
10 to 100 nM | 1 to 10 nM | 10 to 100 nM | CN[C@@H](C)C(=O)N[C@H](C(=O)N1CCC[C@H]1C(=O)N[C@@H]1CCOc2c(-c3cccc4c3OCC[C@H]4NC(=O)[C@@H]3CCCN3C(=O)[C@@H](NC(=O)[C@H](C)NC)C3CCCC3)cccc21)C1CCCC1 [Compound V-F, (2S)-1-[(2S)-2-cyclopentyl-2-[(2S)-2-(methylamino)propanamido]acetyl]-N-[(4R)-8-[(4R)-4-[(2S)-1-[(2S)-2-cyclopentyl-2-[(2S)-2-(methylamino)propanamido]acetyl]pyrrolidine-2-amido]-3,4-dihydro-2H-1-benzopyran-8-yl]-3,4-dihydro-2H-1-benzopyran-4-yl]pyrrolidine-2-carboxamide]
10 to 100 nM | 1 to 10 nM | 100 to 1000 nM | CN[C@@H](C)C(=O)N[C@@H](C)C(=O)N1CCC[C@H]1C(=O)N[C@@H]1CCCc2c(-c3ccc(-c4cccc5c4CCC[C@H]5NC(=O)[C@@H]4CCCN4C(=O)[C@H](C)NC(=O)[C@H](C)NC)cc3)cccc21 [Compound III-H, (2S)-1-[(2S)-2-[(2S)-2-(methylamino)propanamido]propanoyl]-N-[(1R)-5-[4-[(5R)-5-[(2S)-1-[(2S)-2-[(2S)-2-(methylamino)propanamido]propanoyl]pyrrolidine-2-amido]-5,6,7,8-tetrahydronaphthalen-1-yl]phenyl]-1,2,3,4-tetrahydronaphthalen-1-yl]pyrrolidine-2-carboxamide]
